{"source": "patent US20120136011A1", "about": "“COMPOUNDS AND METHODS FOR SKIN REPAIR” (ALLERGAN, INC., priority 2010, published 2012)", "key": {"Sprague-Dawley rats [1]": {"system": "Sprague-Dawley rats", "assay": "Incisional skin wound study comparing Compound 1 and TGF-β3 (intradermal injection, then topical)", "type": "in vivo", "details": "for number of neutrophils counted in three sections of H&E stained tissues: 3 days post-surgery, n=5, vehicle 60.6±30, not statistically significant; for macroscopic surface appearance of wound sites / abnormal regions (dense, red, fine parallel fibers) on Picrosirius red stained sections: 70 days post-surgery; for abnormal regions (dense, red, fine parallel fibers) on Picrosirius red stained sections: versus vehicle; for widths of the abnormal structured dermis regions, Masson trichrome / gap width in-between the normal fibrils, Picrosirius red / collagen fibril type at wound sites, Picrosirius red under polarized light: day 14; for widths of the abnormal structured dermis regions, Masson trichrome / size of residual scar regions, Masson trichrome: versus vehicle treated group, p<0.01-0.05; for gap width in-between the normal fibrils, Picrosirius red: versus vehicle-treated group, p<0.05; for collagen fibril type at wound sites, Picrosirius red under polarized light: yellow large bundles versus green type III collagen; for size of residual scar regions, Masson trichrome: day 70", "description": "(§1) Incisional Skin Wound Model and Assessment. Sprague-Dawley rats at 180-200 gram were anesthetized with isoflourane. After shaving, a 2-cm long incision was made, reaching the deep fascia on the back skin of rats under sterile conditions. The wounds were immediately closed with 4-0 sutures. A 14 day pilot study was carried out. The animals were topically treated with vehicle or Compound 1 at 0.004% twice daily. The vehicle contained ethanol 30%, propylene glycol 12%, dipropylene glycol 5%, benzyl alcohol 5%, glycerol 3% and normal saline 45%. The wound was photographed daily; biopsy was performed at 2, 3, 7 and 14 days post-surgery for histopathology and molecular biology analysis.\nA similar skin wound study was also performed comparing the effects of Compound 1 and TGF-β3. In this study, intradermal injections of Compound 1 at 0.004%, TGF-β3 at 100 ng/200 μl or vehicle were given right before closing the wounds. Afterward, TGF-β3 was injected two more times, on day 1 and 2, and Compound 1 and vehicle were topically applied twice a day for the duration of the study. The vehicle was PBS with 0.1% BSA and 4 mM HCl in a total volume of 200 μl for injection. Skin wounds were imaged on day 3, 7, 14, and 70.\n(§2) The wound tissue was biopsied for histopathology on day 3, 14 and 70. To observe the skin wound, paraffin-embedded wound sections were made. Regular H&E staining was carried out in comparison with Masson trichrome and/or Picosirus red to visualize the collagen fibers. To monitor myofibroblasts in skin wound, the sections were immunohistochemically stained to identify alpha-smooth muscle actin. To assess wound appearance, all the scar photos were mixed together by the end of each study. The scar severity was scored on a scale of 0 to 10, with 0 being invisible, 1 the minimal and 10 the worst. Each scar was divided into 4 regions, separated by suture sites; each quarter was scored independently; the mean of the 4 part scores was recorded as the gross score of each wound."}, "Sprague-Dawley rats [2]": {"system": "Sprague-Dawley rats", "assay": "Incisional skin wound model, 14 day pilot study, topical treatment", "type": "in vivo", "description": "as §1, §2"}, "[3]": {"system": "human adult skin fibroblasts (CRL-7346)", "assay": "Collagen type I production in cultured adult skin fibroblasts (Western blot)", "type": "cell-based"}, "[4]": {"system": "human fetal skin fibroblasts (CRL-7129)", "assay": "Collagen type I production in cultured fetal skin fibroblasts (Western blot)", "type": "cell-based"}, "[5]": {"details": "day 14, Masson Trichrome, versus vehicle"}, "[6]": {"details": "vehicle 100%, 48 hours treatment"}}, "data": [{"compound": "CC1(C)C(=O)[C@H](C/C=C\\CCCC(=O)O)[C@@H](/C=C/[C@H](O)CCc2sc3ccccc3c2Cl)[C@@H]1O", "note": "[Compound 1]", "values": [{"measurement": "number of neutrophils counted in three sections of H&E stained tissues", "setting": "Sprague-Dawley rats [1]", "result": "31.4±8"}, {"measurement": "macroscopic surface appearance of wound sites", "setting": "Sprague-Dawley rats [1]", "result": "wound sites were not even detectable"}, {"measurement": "abnormal regions (dense, red, fine parallel fibers) on Picrosirius red stained sections", "setting": "Sprague-Dawley rats [1]", "result": "largely absent"}, {"measurement": "widths of the abnormal structured dermis regions, Masson trichrome", "setting": "Sprague-Dawley rats [1]", "result": "significantly smaller"}, {"measurement": "gap width in-between the normal fibrils, Picrosirius red", "setting": "Sprague-Dawley rats [1]", "result": "significantly narrower"}, {"measurement": "collagen fibril type at wound sites, Picrosirius red under polarized light", "setting": "Sprague-Dawley rats [1]", "result": "large yellow-stained collagen bundles almost crossing over the entire wound sites"}, {"measurement": "size of residual scar regions, Masson trichrome", "setting": "Sprague-Dawley rats [1]", "result": "remarkably smaller"}, {"measurement": "epidermal layer thickness and structure at wound site", "setting": "Sprague-Dawley rats [2]; 7 days post-skin incision, 0.004% topical twice daily", "result": "thickness close to the nearby normal epidermis"}, {"measurement": "epidermal thickness of vehicle-treated skin relative to Compound 1 treated epidermis", "setting": "Sprague-Dawley rats [2]; 7 days post-skin incision, vehicle had epidermal hyperplasia", "result": 3, "unit": "times"}, {"measurement": "gross skin scar appearance", "setting": "Sprague-Dawley rats [2]; 14 days post-surgery, versus vehicle-treated animals", "result": "smaller and softer skin scar"}, {"measurement": "overall size of epidermal defects, vehicle-treated versus Compound 1 treated wounds", "setting": "Sprague-Dawley rats [2]; day 3 post-surgery, 0.004% topical twice daily", "result": "two times larger for vehicle-treated wounds"}, {"measurement": "skin wound samples showing closed epidermis filled with keratinocytes", "setting": "Sprague-Dawley rats [2]; day 3 post-surgery, 0.004% topical twice daily, vehicle 33%", "result": 80, "unit": "%"}, {"measurement": "number of myofibroblasts (α-SMA-positive cells)", "setting": "Sprague-Dawley rats [2]; day 3 samples, vehicle control 38±6.15/3 sections", "result": "25.8±7.45 /3 sections"}, {"measurement": "scar width (abnormal fiber belt) in the middle and bottom parts of scars", "setting": "Sprague-Dawley rats [2]; [5]", "result": "significantly reduced"}, {"measurement": "scar width at the superficial region", "setting": "Sprague-Dawley rats [2]; [5]", "result": "only a tendency to decrease"}, {"measurement": "neutrophil (polymorphonuclear cell) infiltration at wound sites", "setting": "Sprague-Dawley rats [2]; days 2 and 3 post-surgery, versus vehicle", "result": "significantly reduced"}, {"measurement": "collagen type-1 production (in words)", "setting": "[3]", "result": "upregulated"}, {"measurement": "collagen type-1 production relative to vehicle", "setting": "[3]; [6]", "result": 128, "unit": "%"}, {"measurement": "collagen type-1 production (in words)", "setting": "[4]", "result": "upregulated"}, {"measurement": "collagen type-1 production relative to vehicle", "setting": "[4]; [6]", "result": 200, "unit": "%"}]}, {"compound": "TGF-β3: a leading treatment for wounds, reportedly reducing skin scar in both animals and human", "values": [{"measurement": "number of neutrophils counted in three sections of H&E stained tissues", "setting": "Sprague-Dawley rats [1]", "result": "53.8±17"}, {"measurement": "macroscopic surface appearance of wound sites", "setting": "Sprague-Dawley rats [1]", "result": "still showed traces of wounds"}, {"measurement": "abnormal regions (dense, red, fine parallel fibers) on Picrosirius red stained sections", "setting": "Sprague-Dawley rats [1]", "result": "largely absent"}, {"measurement": "widths of the abnormal structured dermis regions, Masson trichrome", "setting": "Sprague-Dawley rats [1]", "result": "significantly smaller"}, {"measurement": "gap width in-between the normal fibrils, Picrosirius red", "setting": "Sprague-Dawley rats [1]", "result": "significantly narrower"}, {"measurement": "collagen fibril type at wound sites, Picrosirius red under polarized light", "setting": "Sprague-Dawley rats [1]", "result": "some green fibers at the bottom of the wounds"}, {"measurement": "size of residual scar regions, Masson trichrome", "setting": "Sprague-Dawley rats [1]", "result": "remarkably smaller"}]}]}
